Among the test systems are TK-10; HOP-92; OVCAR-5; SK-MEL-2; 786-0; T47D; HL-60; SF-268; SK-OV-3; MDA-MB-435; HOP-62; OVCAR-4; NCI-H23; UO-31; NCI/ADR-RES; LOX IMVI; CCRF-CEM; CAKI-1; MOLT-4; RXF 393.
Assay in all cases: DTP human tumour cell line panel, 48 h

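Exposure lasted 48 hours, with cells grown in 96-well plates and compounds tested at five concentrations. GI50: concentration for 50% inhibition of growth.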 Calls of active or inactive are those of the source. Rule as the data show it: active = GI50 up to about 1.1 µM and inactive = higher.

Broadly, the GI50 is the concentration that inhibits growth by half.

On to `CCn1cc(C(=O)O)c(=O)c2cc(F)c(N3CCN(CN4C(=O)/C(=N\c5ncc(Cc6cc(OC)c(OC)c(OC)c6)c(N)n5)c5cc(Cl)ccc54)CC3)cc21`, for which the GI50 with TK-10 was 83 µM (inactive); in the assay on HOP-92, > 100 µM (inactive); in the assay with OVCAR-5, > 100 µM (inactive); in the assay with SK-MEL-2, > 100 µM (inactive); in the assay on 786-0, > 100 µM (inactive); in the assay with T47D, > 100 µM (inactive). In addition, the GI50 in the assay with HL-60 is 20 µM (inactive); in the assay on SF-268, > 100 µM (inactive); with SK-OV-3, > 100 µM (inactive); in the assay with MDA-MB-435, 33.3 µM (inactive); with HOP-62, > 100 µM (inactive); with OVCAR-4 it was > 100 µM (inactive). The GI50 in the assay with NCI-H23 is > 100 µM (inactive); in the assay on UO-31, > 100 µM (inactive); in the assay on NCI/ADR-RES, > 100 µM (inactive); in the assay on LOX IMVI it was > 100 µM (inactive); in the assay with CCRF-CEM, 91 µM (inactive); in the assay on CAKI-1, > 100 µM (inactive). The GI50 in the assay on MOLT-4 is 0.38 µM (active); in the assay on RXF 393, > 100 µM (inactive).

In the case of `CC(C)S(=O)(=O)ON1C(=O)c2ccc(N(C)C)cc2C1=O`, the GI50 in the assay on TK-10 was 20.5 µM (inactive); with HOP-92, 7.35 µM (inactive); in the assay on OVCAR-5, 18.8 µM (inactive); in the assay on SK-MEL-2, 4.01 µM (inactive); in the assay with 786-0, 4.66 µM (inactive); in the assay on T47D, 9.4 µM (inactive). The GI50 was 3.41 µM (inactive) in the assay on HL-60; 24 µM (inactive) in the assay on SF-268; > 50.7 µM (inactive) in the assay on SK-OV-3; 2.04 µM (inactive) with MDA-MB-435; 42.5 µM (inactive) in the assay with HOP-62; 17.7 µM (inactive) with OVCAR-4. Besides, the GI50 in the assay on NCI-H23 is 27.7 µM (inactive); in the assay on UO-31, 18.2 µM (inactive); in the assay with NCI/ADR-RES, 5.4 µM (inactive); in the assay with LOX IMVI, 13.2 µM (inactive); in the assay with CCRF-CEM, 0.918 µM (active); in the assay on CAKI-1, 5.35 µM (inactive). For the same molecule, the figures for the GI50 with MOLT-4 and in the assay with RXF 393 were 2.12 µM (inactive) and 13.2 µM (inactive), respectively.

Take `CC1(C)C2CCC1(CS(=O)(=O)Nc1ccccc1)C(=O)C2` (stereo not given): the GI50 in the assay with TK-10, in the assay on HOP-92, in the assay with OVCAR-5, in the assay with SK-MEL-2, in the assay with 786-0 and in the assay on T47D was > 100 µM (inactive) in each case. The GI50 in the assay with HL-60, with SF-268, with SK-OV-3, in the assay with MDA-MB-435, in the assay on HOP-62 and with OVCAR-4 was > 100 µM (inactive) throughout. Further, the GI50 in the assay on NCI-H23 was > 100 µM (inactive); in the assay on UO-31 it was 75.9 µM (inactive); with NCI/ADR-RES, > 100 µM (inactive); with LOX IMVI, > 100 µM (inactive); with CCRF-CEM, 11.7 µM (inactive); in the assay with CAKI-1, > 100 µM (inactive). Moreover, the GI50 in the assay on MOLT-4 and with RXF 393 was > 100 µM (inactive) in each case.

As for `CSc1cc(N)ccc1/N=N/c1ccc(S(N)(=O)=O)cc1`, the GI50 with TK-10 is 29.4 µM (inactive); in the assay on HOP-92, 21.8 µM (inactive); in the assay on OVCAR-5, 45 µM (inactive); in the assay on SK-MEL-2, 24.2 µM (inactive); in the assay on 786-0, 26 µM (inactive); with T47D, 18.8 µM (inactive). Further, the GI50 with HL-60 was 25.1 µM (inactive); in the assay on SF-268, 37.8 µM (inactive); in the assay on SK-OV-3 it was 35.8 µM (inactive); in the assay with MDA-MB-435 it was 27.4 µM (inactive); in the assay with HOP-62 it was 29.4 µM (inactive); with OVCAR-4 it was 27.5 µM (inactive). The GI50 in the assay with NCI-H23 is 33.4 µM (inactive); in the assay on UO-31, 16.5 µM (inactive); with NCI/ADR-RES, 29.6 µM (inactive); with LOX IMVI, 29.6 µM (inactive); in the assay with CCRF-CEM it was 27.3 µM (inactive); in the assay with CAKI-1, 36.1 µM (inactive). Also, the GI50 was 31.3 µM (inactive) in the assay on MOLT-4 and 30.5 µM (inactive) with RXF 393.

As for `CN(C1=NS(=O)(=O)N=C(N(C)c2ccccc2)O1)c1ccccc1`, the GI50 with TK-10 was 35.1 µM (inactive); in the assay on HOP-92, 23.6 µM (inactive); with OVCAR-5, 23.1 µM (inactive); with SK-MEL-2 it was 16.4 µM (inactive); in the assay with 786-0, 24.9 µM (inactive); with T47D, 21.2 µM (inactive). Further, the GI50 with HL-60 is 13.6 µM (inactive); with SF-268 it was 24.5 µM (inactive); in the assay on SK-OV-3 it was 40.1 µM (inactive); in the assay on MDA-MB-435 it was 13.8 µM (inactive); in the assay on HOP-62 it was 22.9 µM (inactive); in the assay with OVCAR-4, 20.8 µM (inactive). The GI50 with NCI-H23 was 11.5 µM (inactive); in the assay on UO-31, 21.4 µM (inactive); in the assay on NCI/ADR-RES, 21.8 µM (inactive); in the assay on LOX IMVI it was 13.3 µM (inactive); in the assay with CCRF-CEM it was 13.4 µM (inactive); in the assay with CAKI-1, 22.1 µM (inactive). Besides, the figures for the GI50 in the assay with MOLT-4 and with RXF 393 were 27.4 µM (inactive) and 3.55 µM (inactive), respectively.

Turning to `C=C(Cl)COC(=O)Nc1cccc(Cl)c1`, the GI50 in the assay with TK-10 is 60 µM (inactive); in the assay with HOP-92, 22.7 µM (inactive); in the assay with OVCAR-5, 48.2 µM (inactive); with SK-MEL-2 it was 22.5 µM (inactive); with 786-0 it was 27.4 µM (inactive); in the assay on T47D, 22.9 µM (inactive). Also, the GI50 was 24.4 µM (inactive) with HL-60; 40.1 µM (inactive) with SF-268; 72.8 µM (inactive) with SK-OV-3; 30.1 µM (inactive) in the assay with MDA-MB-435; 38.3 µM (inactive) with HOP-62; 16.2 µM (inactive) in the assay with OVCAR-4. Also, the GI50 in the assay on NCI-H23 was 30.4 µM (inactive); in the assay on UO-31 it was 12 µM (inactive); with NCI/ADR-RES, 29.3 µM (inactive); in the assay with LOX IMVI, 35.6 µM (inactive); in the assay on CCRF-CEM, 28.2 µM (inactive); in the assay on CAKI-1 it was 31.9 µM (inactive). Also, the values for the GI50 with MOLT-4 and with RXF 393 were 57.5 µM (inactive) and 25 µM (inactive), respectively.

For `CC(=O)Nc1cc(/C=C\C(=O)N2CC(CCl)c3c2cc(N)c2ccccc32)n(C)n1` (stereo not given), the GI50 in the assay on TK-10 was 0.0191 µM (active); in the assay on HOP-92 it was 0.0194 µM (active); in the assay with OVCAR-5, 0.0215 µM (active); in the assay with SK-MEL-2, 0.0166 µM (active); with 786-0, 0.00143 µM (active); with T47D, 0.00299 µM (active). The 50% growth inhibitory concentration (GI50) is < 0.001 µM (active) in the assay on HL-60; 0.0057 µM (active) in the assay on SF-268; 0.0163 µM (active) in the assay on SK-OV-3; 0.0169 µM (active) with MDA-MB-435; 0.00347 µM (active) with HOP-62; 0.017 µM (active) in the assay with OVCAR-4. In addition, the GI50 with NCI-H23 was 0.00192 µM (active); in the assay with UO-31, 0.00284 µM (active); with NCI/ADR-RES, 0.0216 µM (active); with LOX IMVI it was 0.00879 µM (active); in the assay with CCRF-CEM, < 0.001 µM (active); with CAKI-1, 0.00129 µM (active). Further, the GI50 was 0.00201 µM (active) in the assay on MOLT-4 and < 0.001 µM (active) with RXF 393.

Turning to `CCCCCC(=O)OC[n+]1ccc2c(C)c3[nH]c4ccc(OC)cc4c3c(C)c2c1`, the GI50 was 2.55 µM (inactive) with TK-10; 1.2 µM (inactive) in the assay with HOP-92; 0.556 µM (active) in the assay on OVCAR-5; 1.61 µM (inactive) with SK-MEL-2; 0.0843 µM (active) in the assay on 786-0; 1.02 µM (active) in the assay with T47D. Also, the GI50 with HL-60 is 0.241 µM (active); in the assay with SF-268 it was 0.211 µM (active); in the assay on SK-OV-3 it was 0.628 µM (active); with MDA-MB-435, 0.499 µM (active); in the assay on HOP-62 it was 0.586 µM (active); in the assay on OVCAR-4, 0.811 µM (active). For the same molecule, the GI50 with NCI-H23 is 0.361 µM (active); in the assay with UO-31, 0.625 µM (active); with NCI/ADR-RES, 0.213 µM (active); with LOX IMVI, 0.224 µM (active); in the assay with CCRF-CEM, 0.0805 µM (active); in the assay with CAKI-1, 1.06 µM (active). The results for the GI50 in the assay on MOLT-4 and in the assay with RXF 393 were 0.0419 µM (active) and 0.208 µM (active), respectively.

Regarding `CCCCCC1=C2C(c3ccc(OC)cc3)=C(N)C(c3ccc(OC)cc3)=C3NC(=O)C(C=C1)C32` (stereo not given), the GI50 is 60.7 µM (inactive) in the assay on TK-10; 17.9 µM (inactive) in the assay on HOP-92; > 100 µM (inactive) in the assay on OVCAR-5; > 100 µM (inactive) in the assay with SK-MEL-2; 25 µM (inactive) in the assay with 786-0; 70.1 µM (inactive) in the assay with T47D. Also, the GI50 in the assay with HL-60 is > 100 µM (inactive); with SF-268, 11.8 µM (inactive); with SK-OV-3 it was 41.7 µM (inactive); in the assay with MDA-MB-435, 37.3 µM (inactive); with HOP-62, 21.8 µM (inactive); in the assay on OVCAR-4, 23.2 µM (inactive). Also, the GI50 in the assay on NCI-H23 is 48.4 µM (inactive); with UO-31, 54.3 µM (inactive); in the assay on NCI/ADR-RES, > 100 µM (inactive); with LOX IMVI, 33.9 µM (inactive); in the assay with CCRF-CEM it was 32.6 µM (inactive); in the assay on CAKI-1, 36 µM (inactive). For the same molecule, the values for the GI50 in the assay with MOLT-4 and in the assay with RXF 393 were 56.4 µM (inactive) and 18.9 µM (inactive), respectively.

For the molecule `CCCCCCCCCCCCCCCCOCC(COP(=O)(O)OCC1OC(n2cc(CC)c(=O)[nH]c2=O)CC1O)OC(=O)CCCCCCCCCCCCCCC` (stereo not given), the GI50 with TK-10, in the assay with HOP-92, with OVCAR-5, in the assay with SK-MEL-2, in the assay on 786-0 and in the assay on T47D was > 100 µM (inactive) each time. In addition, the GI50 is 52 µM (inactive) in the assay with HL-60; > 100 µM (inactive) with SF-268; > 100 µM (inactive) in the assay on SK-OV-3; > 100 µM (inactive) in the assay on MDA-MB-435; > 100 µM (inactive) in the assay on HOP-62; > 100 µM (inactive) in the assay with OVCAR-4. Moreover, the GI50 in the assay on NCI-H23, in the assay with UO-31, with NCI/ADR-RES, in the assay with LOX IMVI, in the assay on CCRF-CEM and in the assay on CAKI-1 was > 100 µM (inactive) each time. Besides, the GI50 in the assay on MOLT-4 and in the assay on RXF 393 was > 100 µM (inactive) in each case.

The record behind these values is ChEMBL document CHEMBL1201862, “PubChem BioAssay data set” (2004).
